Laboratory results reported in US20110245081A1, “HERBICIDE COMPOSITION FOR LAWN” (priority 2006, published 2011).
Read-outs that look alike come from different tables or passages of the source.

Assays:
Format in all cases: in vivo
[1] = tested on: Digitaria ciliayis (Retz.) Koeler; assay: Test Example 1: soil treatment by mixing, herbicidal effect; details: 1080 h
Protocol: (§1) On a field of Zoysia japonica sectioned to 100 cm×100 cm, seeds of Digitaria ciliayis (Retz.) Koeler, Poa annua L., Polygonum hydropiper L., Euphorbia supine Rafin, Oxalis comiculata L., Cyperus microiria were sown and covered with 0.5 cm soil. Seven days after weeds sowing, treatment was conducted with watering amount of 200 cc/m^2. The prescribed amount of test compound was sprayed with a small spray in the form of the formulation prepared according to the above-mentioned examples or a wettable powder of a single compound diluted with water.
(§2) The herbicidal effect and the degree of phytotoxicity to the lawn were studied 45 days after the agent treatment.
(§3) Herbicidal effect: 100%: complete death 0%: no effect Phytotoxicity: 100%: complete death 0%: no phytotoxicity
(§4) In the tables, ai means the effective component.

[2] = tested on: Oxalis corniculata L.; assay: as above; details: 1080 h
Protocol: as §1, §2, §3, §4

[3] = tested on: Poa annua L.; assay: as above; details: 1080 h
Protocol: as §1, §2, §3, §4

[4] = tested on: Polygonum blumei; assay: as above; details: 1080 h
[5] = tested on: Erigeron canadensis; assay: as above; details: 1080 h
[6] = tested on: Chenopodium ficifolium; assay: as above; details: 1080 h
[7] = tested on: Digitaria ciliayis (Retz.) Koeler; assay: Test Example 2: foliage and soil treatment by mixing, herbicidal effect; details: 1080 h
Protocol: as §1, §3
(§5) A test section of Zoysia matrella had been prepared in the same method as in the Test Example 1 and on the 28th day after weeds sowing a treatment was conducted with watering amount of 200 cc/m2. The prescribed amount of test compound was sprayed with a small spray in the form of the formulation prepared according to the aforementioned examples or a wettable powder of a single compound diluted with water.
(§6) The herbicidal effect and the degree of phytotoxicity to the lawn were studied 45 days after the agent treatment in the same manner as Test Example 1.

[8] = tested on: Oxalis corniculata L.; assay: as above; details: 1080 h
Protocol: as §1, §3, §5, §6

[9] = tested on: Poa annua L.; assay: as above; details: 1080 h
Protocol: as §1, §3, §5, §6

[10] = tested on: Polygonum blumei; assay: as above; details: 1080 h
Protocol: as §1, §3, §5, §6

[11] = tested on: Erigeron canadensis; assay: as above; details: 1080 h
[12] = tested on: Chenopodium ficifolium; assay: as above; details: 1080 h
[13] = tested on: Zoysia matrella; details: soil treatment, 45 days
[14] = tested on: Zoysia matrella; details: foliage and soil treatment, 45 days
[15] = soil treatment, 45 days, Ethoxysulfuron 125 g ai/ha
[16] = foliage and soil treatment, 45 days, Ethoxysulfuron 125 g ai/ha
[17] = soil treatment, 45 days, Indanofan 1000 g ai/ha
[18] = foliage and soil treatment, 45 days, Indanofan 1000 g ai/ha
[19] = read-out: Herbicidal effect Digitaria ciliayis (Retz.) Koeler
[20] = read-out: Herbicidal effect Oxalis corniculata L.
[21] = read-out: Herbicidal effect Poa annua L.
[22] = read-out: Herbicidal effect Polygonum blumei
[23] = read-out: Herbicidal effect Chenopodium ficifolium
[24] = soil treatment, 45 days, Fentrazamide 1500 g ai/ha
[25] = foliage and soil treatment, 45 days, Fentrazamide 1500 g ai/ha
[26] = soil treatment, 45 days, Asulam 1500 g ai/ha
[27] = foliage and soil treatment, 45 days, Asulam 1500 g ai/ha
[28] = soil treatment, 45 days, Oxaziclomefone 150 g ai/ha
[29] = foliage and soil treatment, 45 days, Oxaziclomefone 150 g ai/ha

CCOc1ccccc1OS(=O)(=O)NC(=O)Nc1nc(OC)cc(OC)n1 [Ethoxysulfuron, 1-(4,6-dimethoxypyrimidin-2-yl)-3-(2-ethoxyphenoxysulfonyl)urea]
pest or weed control at 125 g/ha [1, 15]: 0%
pest or weed control at 125 g/ha [2, 15]: 50%
pest or weed control at 125 g/ha [3, 15]: 0%
pest or weed control at 125 g/ha [4, 15]: 60%
pest or weed control at 125 g/ha [5, 15]: 75%
pest or weed control at 125 g/ha [6, 15]: 70%
pest or weed control at 125 g/ha [7, 16]: 0%
pest or weed control at 125 g/ha [8, 16]: 30%
pest or weed control at 125 g/ha [9, 16]: 0%
pest or weed control at 125 g/ha [10, 16]: 40%
pest or weed control at 125 g/ha [11, 16]: 60%
pest or weed control at 125 g/ha [12, 16]: 50%

CCC1(CC2(c3cccc(Cl)c3)CO2)C(=O)c2ccccc2C1=O (racemic) [Indanofan, (RS)-2-[2-(3-chlorophenyl)-2,3-epoxypropyl]-2-ethylindan-1,3-dione]
pest or weed control at 1000 g/ha [1, 17]: 0%
pest or weed control at 1000 g/ha [2, 17]: 50%
pest or weed control at 1000 g/ha [3, 17]: 0%
pest or weed control at 1000 g/ha [4, 17]: 60%
pest or weed control at 1000 g/ha [5, 17]: 75%
pest or weed control at 1000 g/ha [6, 17]: 70%
pest or weed control at 1000 g/ha [7, 18]: 30%
pest or weed control at 1000 g/ha [8, 18]: 0%
pest or weed control at 1000 g/ha [9, 18]: 30%
pest or weed control at 1000 g/ha [10, 18]: 0%
pest or weed control at 1000 g/ha [11, 18]: 0%
pest or weed control at 1000 g/ha [12, 18]: 20%

CCN(CC)C(=O)n1cnc(S(=O)(=O)c2c(C)cc(C)cc2C)n1 [Cafenstrole, N,N-diethyl-3-meticylsulfonyl-1H-1,2,4-triazol-1-carboxamide]
pest or weed control at 2000 g/ha [1, 19]: 0%
pest or weed control at 2000 g/ha [2, 20]: 50%
pest or weed control at 2000 g/ha [3, 21]: 0%
pest or weed control at 2000 g/ha [4, 22]: 60%
pest or weed control at 2000 g/ha ([5]; soil, read-out: Herbicidal effect Erigeron canadensis): 75%
pest or weed control at 2000 g/ha [6, 23]: 70%
Zoysia matrella phytotoxicity ([13]; Cafenstrole 2000 g ai/ha): 0%
pest or weed control at 2000 g/ha [7, 19]: 40%
pest or weed control at 2000 g/ha [8, 20]: 0%
pest or weed control at 2000 g/ha [9, 21]: 30%
pest or weed control at 2000 g/ha [10, 22]: 0%
pest or weed control at 2000 g/ha ([11]; read-out: Herbicidal effect Erigeron canadensis): 0%
pest or weed control at 2000 g/ha [12, 23]: 20%
Zoysia matrella phytotoxicity ([14]; Cafenstrole 2000 g ai/ha): 0%

CCN(C(=O)n1nnn(-c2ccccc2Cl)c1=O)C1CCCCC1 [Fentrazamide, 4-(2-chlorophenyl)-N-cyclohexyl-N-ethyl-4,5-dihydro-5-oxo-1H-terazol-1-carboxamide]
pest or weed control at 1500 g/ha [1, 24]: 90%
pest or weed control at 1500 g/ha [2, 24]: 0%
pest or weed control at 1500 g/ha [3, 24]: 80%
pest or weed control at 1500 g/ha [4, 24]: 0%
pest or weed control at 1500 g/ha [5, 24]: 0%
pest or weed control at 1500 g/ha [6, 24]: 20%
Zoysia matrella phytotoxicity ([13]; Fentrazamide 1500 g ai/ha): 0%
pest or weed control at 1500 g/ha [7, 25]: 40%
pest or weed control at 1500 g/ha [8, 25]: 0%
pest or weed control at 1500 g/ha [9, 25]: 30%
pest or weed control at 1500 g/ha [10, 25]: 0%
pest or weed control at 1500 g/ha [11, 25]: 0%
pest or weed control at 1500 g/ha [12, 25]: 0%
Zoysia matrella phytotoxicity ([14]; Fentrazamide 1500 g ai/ha): 0%

COC(=O)NS(=O)(=O)c1ccc(N)cc1 [Asulam, methyl sulfanyl carbamate]
pest or weed control at 1500 g/ha [1, 26]: 20%
pest or weed control at 1500 g/ha [2, 26]: 0%
pest or weed control at 1500 g/ha [3, 26]: 20%
pest or weed control at 1500 g/ha [4, 26]: 0%
pest or weed control at 1500 g/ha [5, 26]: 0%
pest or weed control at 1500 g/ha [6, 26]: 0%
pest or weed control at 1500 g/ha [7, 27]: 40%
pest or weed control at 1500 g/ha [8, 27]: 60%
pest or weed control at 1500 g/ha [9, 27]: 30%
pest or weed control at 1500 g/ha [10, 27]: 70%
pest or weed control at 1500 g/ha [11, 27]: 60%
pest or weed control at 1500 g/ha [12, 27]: 60%

CC1=C(c2ccccc2)C(=O)N(C(C)(C)c2cc(Cl)cc(Cl)c2)CO1 [Oxaziclomefone, 3-[1-(3,5-dichlorophenyl)-1-methylethyl]-3,4-dihydro-6-methyl-5-phenyl-2H-1,3-oxazin-4-one]
pest or weed control at 150 g/ha [1, 28]: 90%
pest or weed control at 150 g/ha [2, 28]: 0%
pest or weed control at 150 g/ha [3, 28]: 90%
pest or weed control at 150 g/ha [4, 28]: 0%
pest or weed control at 150 g/ha [5, 28]: 0%
pest or weed control at 150 g/ha [6, 28]: 0%
pest or weed control at 150 g/ha [7, 29]: 30%
pest or weed control at 150 g/ha [8, 29]: 0%
pest or weed control at 150 g/ha [9, 29]: 30%
pest or weed control at 150 g/ha [10, 29]: 0%
pest or weed control at 150 g/ha [11, 29]: 0%
pest or weed control at 150 g/ha [12, 29]: 0%
